Measured values taken from US5719145A, “Amidine derivatives and platelet aggregation inhibitor containing the same” (Mitsui Toatsu Chemicals, Inc., priority 1996, dated 1998).
Structures can show the parent of a compound that is named as a salt.

Experiments:
[1] = system: human platelets (platelet-rich plasma); assay: In vitro inhibition of platelet aggregation in human (ADP-induced, PRP); assay type: cell-based; conditions: ADP final concentration 5 μM, read-out: Platelet aggregation inhibitory activity in human, IC50
Method: 2. Inhibition of platelet aggregation in human
Blood was collected from healthy human volunteers with an injection syringe and mixed one volume of 3.8% of sodium citrate as an anticoagulant to 9 volumes of the blood. Successively, the obtained blood mixture was subjected to centrifugation at 120×g for 15 minutes at room temperature to obtain platelet-rich plasma (PRP). An aliquot of PRP was further subjected to centrifugation at 1,200×g for 20 minutes to obtain platelet-poor plasma (PPP). Numbers of the platelet were measured with an automatic platelet counter: Sysmex PL-100 (manufactured by Toa Iyodenshi Co.) and PRP was diluted with PPP so as to adjust a platelet concentration to be about 250,000 particles/μl. Platelet aggregation was measured by the following procedure with a 6 channel aggregometer: HEMA TRACER 1 (manufactured by NKK Co.)
(§1) After incubation of 240 μl of PRP at 37° C. for 2 minutes, 30 μl of the solvent of specimen as a control or the specimen in various concentrations was added to PRP. Further 2 minutes later, 30 μl of adenosine diphosphate (final concentration: 5 μM) was added to induce platelet aggregation. An inhibition percentage was obtained by comparing the maximum aggregation of the specimen drug group with that of control. […]

[2] = target: T1, human fibrinogen receptor GP IIb/IIIa (Homo sapiens, UniProt P05106+P08514); assay: Binding inhibition of biotinylated fibrinogen to GP IIb/IIIa; conditions: purified human GP IIb/IIIa, read-out: Inhibition of GPIIb/IIIa . Fibrinogen Binding, IC50
T1 construct: Concentrated and lyophilized human platelet (20 vial) (Organon Teknika Co.) was lysed; tissue Organon Teknika Co; host or cells: human platelets (lyophilized), lysed in Triton X-100
T1 sequence (P08514 32-887 limits assumed): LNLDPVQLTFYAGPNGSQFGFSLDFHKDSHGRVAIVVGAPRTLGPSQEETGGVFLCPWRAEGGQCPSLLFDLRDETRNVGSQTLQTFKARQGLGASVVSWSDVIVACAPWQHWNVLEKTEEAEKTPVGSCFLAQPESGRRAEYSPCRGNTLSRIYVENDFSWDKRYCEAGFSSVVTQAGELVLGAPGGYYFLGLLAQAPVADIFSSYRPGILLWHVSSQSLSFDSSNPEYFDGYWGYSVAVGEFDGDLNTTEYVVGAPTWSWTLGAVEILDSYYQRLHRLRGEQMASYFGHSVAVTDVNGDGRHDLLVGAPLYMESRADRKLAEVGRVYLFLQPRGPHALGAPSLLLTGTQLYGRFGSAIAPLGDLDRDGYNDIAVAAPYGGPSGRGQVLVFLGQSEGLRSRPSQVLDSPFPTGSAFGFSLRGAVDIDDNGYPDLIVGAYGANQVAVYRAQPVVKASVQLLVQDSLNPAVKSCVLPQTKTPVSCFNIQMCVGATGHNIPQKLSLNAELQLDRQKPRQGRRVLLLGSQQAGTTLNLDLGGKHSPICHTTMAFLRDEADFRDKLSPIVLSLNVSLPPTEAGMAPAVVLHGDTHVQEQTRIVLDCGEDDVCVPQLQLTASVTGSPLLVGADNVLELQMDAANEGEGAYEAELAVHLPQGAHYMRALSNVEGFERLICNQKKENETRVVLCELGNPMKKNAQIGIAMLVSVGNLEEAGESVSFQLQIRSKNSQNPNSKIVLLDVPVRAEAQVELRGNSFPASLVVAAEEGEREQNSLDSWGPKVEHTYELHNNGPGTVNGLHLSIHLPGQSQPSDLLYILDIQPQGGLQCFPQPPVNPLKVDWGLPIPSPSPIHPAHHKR
T1 sequence (P08514 891-1039 partner limits assumed): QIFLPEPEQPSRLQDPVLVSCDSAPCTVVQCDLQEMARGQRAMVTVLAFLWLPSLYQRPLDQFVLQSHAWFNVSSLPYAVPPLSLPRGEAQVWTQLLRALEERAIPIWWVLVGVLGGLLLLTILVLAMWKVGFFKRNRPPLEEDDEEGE
T1 sequence (P05106 27-788): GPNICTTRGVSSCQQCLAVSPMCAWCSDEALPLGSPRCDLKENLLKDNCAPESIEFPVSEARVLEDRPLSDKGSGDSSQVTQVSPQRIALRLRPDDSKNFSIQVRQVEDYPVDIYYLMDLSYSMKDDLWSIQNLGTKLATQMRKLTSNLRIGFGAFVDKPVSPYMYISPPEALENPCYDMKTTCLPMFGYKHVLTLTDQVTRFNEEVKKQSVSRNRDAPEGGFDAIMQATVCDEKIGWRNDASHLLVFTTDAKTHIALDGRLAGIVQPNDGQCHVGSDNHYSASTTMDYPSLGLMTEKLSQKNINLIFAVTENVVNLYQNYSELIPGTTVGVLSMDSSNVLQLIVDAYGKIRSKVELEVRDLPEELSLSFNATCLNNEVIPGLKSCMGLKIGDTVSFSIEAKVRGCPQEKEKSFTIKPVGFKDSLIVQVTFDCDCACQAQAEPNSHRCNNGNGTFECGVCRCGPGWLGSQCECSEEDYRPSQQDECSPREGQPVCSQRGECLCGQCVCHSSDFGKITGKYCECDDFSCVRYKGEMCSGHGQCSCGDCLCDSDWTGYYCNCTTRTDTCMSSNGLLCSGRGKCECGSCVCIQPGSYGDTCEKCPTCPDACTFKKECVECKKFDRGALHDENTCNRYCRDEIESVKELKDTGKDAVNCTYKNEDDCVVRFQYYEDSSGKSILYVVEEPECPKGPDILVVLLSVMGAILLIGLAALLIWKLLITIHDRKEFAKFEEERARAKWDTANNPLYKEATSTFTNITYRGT
Method: Experiment for binding inhibition between GP IIb/IIIa and fibrinogen
1. Purification of human fibrinogen receptor GP IIb/IIIa
Concentrated and lyophilized human platelet (20 vial) (Organon Teknika Co.) was lysed in an antienzymic solution (80 ml) (1% Triton X-100, 10 mM Tris-HCl, 150 mM NaCl, 1 mM CaCl2, 10 μM leupeptin, 1 mM phenylmethane sulfonyl fluoride, pH 7.4), allowed to incubate for an hour at 4° C., and centrifuged at 30,000×g for 15 minutes to recover the supernatant solution containing 150 mg of protein. The GP IIb/IIIa was purified according to the method of Phillips et al. [Methods in Enzymology Vol. 215, (J. J. Hawigar, Eds.), 244-263, Acedemic Press Inc., San Diego].
2. Preparation of biotinylated fibrinogen
Human fibrinogen Grade L (KABI Co.) was purified by using Shepharose CL-6B and Lysine-Sepharose. Thus purified human fibrinogen (2.3 mg/ml) was dialyzed for 3 hours with 0.1M aqueous sodium bicarbonate solution at room temperature and successively diluted to 1 mg/ml. To the solution (4.5 ml) obtained, NHC-LC-Biotin (2 mg) (Pierce Co.) was added and reacted for 1 hour at room temperature to biotinylate fibrinogen. The reaction mixture was dialyzed at 4° C. for 24 hours with TBS (20 mM Tris-HCl, 150 mM NaCl, 1 mM CaCl2, 1 mM MgCl2, pH 7.4) to obtain biotinylated fibrinogen.
3. Binding inhibition of biotinylated fibrinogen to GP IIb/IIIa
Specimen drugs were dissolved and diluted with TBS containing 1% BSA. To each solution, an equal volume of biotinylated fibrinogen (2 μg/ml) dissolved in TBS containing 1% BSA, was added. The inhibition percentage of specimen drugs were measured by the method of Mori et al. [Jpn. J. Thromb. Hemost., 2, 323-399 (1991) with small modification].
Purified GP IIb/IIIa was diluted to 1.5 μg/ml in TBS containing 0.0005% of Triton X-100. The GP IIb/IIIa solution was added to a 96 well microplate (E.I.A/R.I.A. Plate, Costar Co.) in a volume of 100 μl for each well, and incubated at 4° C. for 24 hours to immobilize GP IIb/IIIa. The microplate was washed twice with a washing solution (TBS containing 0.01% of Tween 20). Thereafter TBS containing 3.5% of BSA was added to each well in a volume of 200 μl and blocking was carried out for about an hour at room temperature. The microplate was further washed twice with the washing solution, and successively a mixture of the specimen drug and the biotinylated fibrinogen was added in a volume of 100 μl/well and incubated for 24 hours at room temperature. The microplate was thereafter washed five times, and peroxidase-labeled streptoavidin (a kit of Amersham Co.) which was previously diluted 3000 times with TBS was added in a volume of 100 μl/well and incubated for about 30 minutes at room temperature. After washing the microplate 5 times, a 0.05M phosphate-citrate buffer solution (pH5) containing o-phenylenediamine(0.4 mg/ml) (manufactured by Sigma Co.) and H2 O2 (0.012%) was added in a volume of 200 μl/well to develop color for 20-40 minutes. The reaction was stopped by addition of 0.3M sulfuric acid in a volume of 50 μl/well and absorbance at 490 nm was measured with Immunoreader NJ-200 (manufactured by Inter Med Co.). […]

[3] = system: guinea pig platelets (platelet-rich plasma); assay: In vitro inhibition of platelet aggregation in guinea pig (ADP-induced, PRP); assay type: cell-based; conditions: Cavia porcellus, ADP final concentration 5 μM, read-out: Platelet aggregation inhibitory activity in guinea pig, IC50
Method: In vitro experiment of platelet aggregation inhibition
1. Inhibition of platelet aggregation in Guinea pig
Blood of male guinea pig was collected with an injection syringe which contains 3.8 % sodium citrate as an anticoagulant in a ratio of 1 volume to 9 volumes of the blood. Successively, the collected blood mixture was subjected to centrifugation at 120×g for 15 minutes at room temperature to obtain platelet-rich plasma (PRP). An aliquot of PRP was further subjected to centrifugation at 1,200×g for 15 minutes to obtain platelet-poor plasma (PPP). Numbers of the platelet in PRP were measured with an automatic platelet counter: Sysmex PL-100 (manufactured by Toa Iyodenshi Co.) and PRP was diluted with PPP so as to adjust a platelet concentration to be about 300,000 particles/ μl. Platelet aggregation was measured by the following procedure with a 6 channel aggregometer: HEMA TRACER 1 (manufactured by NKK Co.).
as §1, with “control or of the specimen” for “control or the specimen”, “(final concentration: 5μM) was added” for “(final concentration: 5 μM) was added”

[4] = system: guinea pig platelets (platelet-rich plasma); assay: Inhibition against platelet aggregation ability after oral administration in guinea pig; assay type: in vivo; conditions: Cavia porcellus, 1 h, oral administration: 37 μmol/kg, blood collected after an hour, ADP 5 μM, read-out: Aggregation inhibiting rate (%)
Method: Experiment for inhibition against platelet aggregation ability after oral administration The specimen drug was dissolved or suspended at a concentration of 18.5 μmol/ml in a physiological saline containing 0.5% of Tween 80. […] A physiological saline containing 0.5% of Tween 80 was similarly administered as a control. […] The blood mixture was centrifuged at 800 r.p.m. for 20 minutes at room temperature to obtain PRP in the upper layer. The lower layer was further centrifuged at 3000 r.p.m. for 15 minutes to obtain PPP in upper layer. […] Platelet aggregation ability was measured according to the method for measuring in vitro platelet aggregation. […] HEMA TRACER 1 (manufactured by NKK Co.). After incubation of PRP at 37° C. for 2 minutes, a physiological saline (30 μl) was added. […] An inhibiting ratio was obtained by comparing the maximum aggregation of the specimen drug group with that of control.

Compound	IC50 [1]	IC50 [2]	IC50 [3]	inhibition at 37 µmol/kg [4]
C#CCNC(=N)c1ccc(C(=O)Nc2ccc3c(c2)CC(CC(=O)O)CC3)cc1 (single isomer, unassigned; (-)) [Example 46, (-)-7-[[4-(N^2-propargylamidino)benzoyl]amino]-1,2,3,4-tetrahydronaphthalene-2-acetic acid hydrochloride]	29 nM	0.11 nM	150 nM	
N=C(c1ccc(C(=O)Nc2ccc3c(c2)CC(CC(=O)O)CC3)cc1)N1CCOCC1 (single isomer, unassigned; (-)) [Example 48, (-)-7-[[4-(morpholinoiminomethyl)benzoyl]amino]-1,2,3,4-tetrahydronaphthalene-2-acetic acid hydrochloride]	33 nM	0.07 nM	69 nM	
C#CCNC(=N)c1ccc(C(=O)Nc2ccc3c(c2)CC(CC(=O)O)CO3)cc1 (single isomer, unassigned; (-)) [Example 50, (-)-6-[[4-(N^2-propargylamidino)benzoyl]amino]chroman-3-acetic acid hydrochloride]	44 nM	0.22 nM	200 nM	
N=C(c1ccc(C(=O)Nc2ccc3c(c2)CC(CC(=O)O)CO3)cc1)N1CCOCC1 (single isomer, unassigned; (-)) [Example 52, (-)-6-[[4-(morpholinoiminomethyl)benzoyl]amino]chroman-3-acetic acid hydrochloride]	35 nM	0.13 nM	110 nM	
N=C(c1ccc(C(=O)Nc2ccc3c(c2)CC(CC(=O)O)CC3)cc1)N1CCOCC1 (stereo not shown) [Example 2, 7-[[4-(morpholinoiminomethyl)benzoyl]amino]-1,2,3,4-tetrahydronaphthalene-2-acetic acid hydrochloride]	68 nM	0.13 nM	140 nM	
N=C(c1ccc(C(=O)Nc2ccc3c(c2)CC(CC(=O)O)CO3)cc1)N1CCOCC1 (stereo not shown) [Example 5, 6-[[4-(morpholinoiminomethyl)benzoyl]amino]chroman-3-acetic acid hydrochloride]	66 nM			
N=C(c1ccc(C(=O)Nc2ccc3c(c2)OCC(CC(=O)O)C3)cc1)N1CCOCC1 (stereo not shown) [Example 9, 7-[[4-(morpholinoiminomethyl)benzoyl]amino]chroman-3-acetic acid hydrochloride]	171 nM			
CN1CCN(C(=N)c2ccc(C(=O)Nc3ccc4c(c3)CC(CC(=O)O)CC4)cc2)CC1 (stereo not shown) [Example 15, dihydrochloride]	110 nM			
N=C(c1ccc(C(=O)Nc2ccc3c(c2)CC(CC(=O)O)CC3)cc1)N1CCCCC1 (stereo not shown) [Example 18, 7-[[4-(piperidinoiminomethyl)benzoyl]amino]-1,2,3,4-tetrahydronaphthalene-2-acetic acid hydrochloride]	140 nM	0.26 nM		
C#CCNC(=N)c1ccc(C(=O)Nc2ccc3c(c2)CC(CC(=O)O)CO3)cc1 (stereo not shown) [Example 27, 6-[[4-(N^2-propargylamidino)benzoyl]amino]chroman-3-acetic acid hydrochloride]	78 nM			
NC(=NCc1ccco1)c1ccc(C(=O)Nc2ccc3c(c2)CC(CC(=O)O)CC3)cc1 (stereo not shown) [Example 30, 7-[[4-[N^2-(2-furfuryl)amidino]benzoyl]amino]-1,2,3,4-tetrahydronaphthalene-2-aceticacid hydrochloride]		0.14 nM	180 nM	
N=C(NCc1ccco1)c1ccc(C(=O)Nc2ccc3c(c2)CN(CC(=O)O)CC3)cc1 [Example 33, 7-[[4-[N^2-(2-furfuryl)amidino]benzoyl]amino]-1,2,3,4-tetrahydroisoquinoline-2-acetic acid dihydrochloride]	160 nM			
C#CCN(C)C(=N)c1ccc(C(=O)Nc2ccc3c(c2)CC(CC(=O)O)CC3)cc1 (stereo not shown) [Example 35, 7-[[4-(N^2-methyl-N^2-propargylamidino)benzoyl]amino]-1,2,3,4-tetrahydronaphthalene-2-acetic acid hydrochloride]	160 nM			
N=C(NCc1cccs1)c1ccc(C(=O)Nc2ccc3c(c2)CC(CC(=O)O)CC3)cc1 (stereo not shown) [Example 37, 7-[[4-[N^2-(2-thenyl)amidino]benzoyl]amino]-1,2,3,4-tetrahydronaphthalene-2-acetic acid hydrochloride]		0.04 nM	220 nM	
CCOC(=O)CC1CCc2ccc(NC(=O)c3ccc(C(=N)NCc4cccnc4)cc3)cc2C1 (stereo not shown) [Example 40, ethyl 7-[[4-[N^2-(3-picolyl)amidino]benzoyl]amino]-1,2,3,4-tetrahydronaphthalene-2-acetatedihydrochloride]			110 nM	> 90%
CCCN=C(N)c1ccc(C(=O)Nc2ccc3c(c2)CC(CC(=O)OCC)CC3)cc1 (stereo not shown) [Reference Example 9, ethyl 7-[[4-[N^2-(n-propyl)amidino]benzoyl]amino]-1,2,3,4-tetrahydronaphthalene-2-acetate hydrochloride, reference compound]			520 nM	3%
